Reference: patent publication US7820656B2, “Pharmaceutical composition comprising N-aryl N′ morpholino/piperidino thiocarbamide derivatives for treating type II diabetes” (priority 2004, dated 2010)

Assays:
[1] = system: RAW 264.7 cells; experiment: Measurement of anti-inflammatory action (nitrites, Griess reaction, LPS-stimulated); format: cell-based; settings: for Produced nitrites: 15 hours, control 3.3435, LPS 6.2775
Description: Nitrites accumulated in a cellular medium were measured as a marker of […] (NO) formation through a Griess reaction. RAW 264.7 cells were cultured in a medium containing DMEM, 10% FBS, penicillin (100 units/ml) and streptomycin sulfate (100 μg/ml) in a presence of 5% CO2, treated with N-aryl N′ morpholino/piperidino thiocarbamide derivatives in a content of 10 μg/ml and 100 μg/ml in a presence of LPS (1 μg/ml), followed by adding a Griess reagent 100 μl to the medium 100 μl 15 hours later to be cultured at room temperature for 10 minutes and measuring an absorbance at 540 nm. Nitrite content in a medium was evaluated by a standard curve using NaNO2.

[2] = system: HepG2 cells; experiment: Measurement of lipid peroxide (TBARS); format: cell-based; settings: for Average content of TBARS (%): control 100.0; for decrease of TBARS content compared with control group: HepG2, 24 hours (FIG. 4)
Description: HepG2 cells were cultured to administer N(4′-chlorophenyl) N′ morpholino thiocarbamide (10 μg/ml-100 μg/ml). After 24 hours, a cellular culture solution was removed to wash HepG2 cells with a phosphate buffer solution (PBS), prior to adding 0.1% Triton X-100 to detach the cells. The separated cell extracts were mixed with 20% acetic acid, pH 3.5 and 0.78% aqueous thiobarbituric acid solution. The mixture was heated at 95° C. for 1 hour and centrifuged at 3000 rpm for 15 minutes. The absorbance of the red supernatant was measured at 532 nm (Anal Biochem, 1979, 95, 351-358).

[3] = system: HepG2 hepatocyte; experiment: Measurement of glycogenesis ability (glycogen content, absorbance at 490 nm); format: cell-based; settings: for Glycogenesis (absorbance): absorbance at 490 nm, control 0.103; for Rate of Increase(%) of glycogenesis: versus control
Description: Thereto, ethanol was added to precipitate glycogen, followed by dissolving the precipitated glycogen in conc. sulfuric acid. Glucose produced was reacted with phenol to obtain a stained product. An absorbance of the stained product was measured at 490 nm (J Applied Physiol, 1970, 28, 234-236).

[4] = biological target: T1, insulin receptor (Mus musculus, UniProt P15208); experiment: Phosphorylation measurement of insulin receptor tyrosin residues (hepatic lysate, immunoprecipitation, western blot); format: in vivo; settings: 80 mg/kg to mouse starved 16 hours, liver after 1 hour; compared with control (FIG. 5)
T1 construct: the mouse was dissected to separate a liver at 4° C; from tissue; host or cells: mouse liver (hepatic lysate)
Description: N(4′-chlorophenyl) N′ morpholino thiocarbamide in a dose of 80 mg/kg was administered to a male IC mouse starved for 16 hours. After an hour passed, the mouse was dissected to separate a liver at 4° C. Hepatic homogenization was provided by a little modification of conventional method (Zhao, H., Xu, H., Moore, E., Meiri, N., Quon, M. J., Alkon, D., L., Insulin receptors and spatial memory. J. Biol. Chem. 274, 34893-34902, 1999). The separated liver was suspended in a buffer A containing 50 mM Tris HCl, pH 7.4, 1 mM EDTA, 1 mM EGTA, 150 mM NaCl, 1% Triton X-100, 0.5 mM PMSF, 1 mM Na3VO4, leupeptin and aprotinin 1 μg/ml, and homogenized using a Potter-Elvehjem homogenizer. The lysate was centrifuged at 10,000×g for 20 minutes. The supernatant was analyzed on proteins and preserved at −70° C.
An immunoprecipitation was carried out by a known technique (Kim S. J., Kahn, C. R. Insulin stimulates phosphorylation of c-Jun, c-Fos and Fos-related proteins in cultured adipocytes. J. Biol. Chem. 269, 11887-11892, 1994). An equal amount of proteins from hepatic lysate were cultured with an insulin receptor antibody at 4° C. for 1 hour, followed by thereto adding protein A-cephalos to precipitate the immune complex by a centrifuge. […]

[5] = Measurement of lethal dose 50%; format: in vivo, mouse; settings: mouse, in vivo; oral, mice
Description: (§1) The number of dead animal was counted after N(4′-chlorophenyl) N′ morpholino thiocarbamide was orally administered to 10 mice per a dose in a dose of 50 mg/kg, 500 mg/kg, and 5000 mg/kg.

[6] = system: mice; experiment: Measurement of lethal dose 50%; format: in vivo, mouse; settings: oral, 50 mg/kg, 500 mg/kg and 5000 mg/kg, 10 mice per dose
Description: as §1

[7] = Measurement of body weight; format: in vivo; settings: 80 mg/kg oral once a day for 3 consecutive weeks; administered group vs control (FIG. 6)
Description: Change of body weight was measured every week before and after N(4′-chlorophenyl) N′ morpholino thiocarbamide (80 mg/kg, PO) was administered.

[8] = system: mouse; experiment: Oral glucose tolerance test; format: in vivo; settings: 80 mg/kg oral 1 h before glucose 2 g/kg oral; blood glucose at 30, 60, 120 min; compared with control (FIG. 1)
Description: A mouse was starved for 18 hours, prior to orally administering N(4′-chlorophenyl) N′ morpholino thiocarbamide to the mouse in a dose of 80 mg/kg. After an hour passed, Glucose of 2 g/kg was orally administered to measure blood glucose level in 30, 60, and 120 minutes using a blood glucose testing kit.

[9] = system: streptozotocin-induced diabetic mouse; experiment: Blood glucose lowering effect using a streptozotocin-induced diabetic mouse; format: in vivo; settings: 80 mg/kg oral a day, 5 days a week, 3 consecutive weeks; STZ control almost 550 mg/dl (FIG. 2)
Description: A mouse was used two weeks after streptozotocin (50 mM citrate buffer, pH 4.5) was intraperitoneally administered to the mouse (J Gene Med. 2003, 5, 417-424). […] Change of blood glucose level was measured once a week.

[10] = Dosage 10 ug/ml with LPS 1 μg/ml
[11] = Dosage 100 ug/ml with LPS 1 μg/ml

T1 sequence (P15208 28-748 limits assumed): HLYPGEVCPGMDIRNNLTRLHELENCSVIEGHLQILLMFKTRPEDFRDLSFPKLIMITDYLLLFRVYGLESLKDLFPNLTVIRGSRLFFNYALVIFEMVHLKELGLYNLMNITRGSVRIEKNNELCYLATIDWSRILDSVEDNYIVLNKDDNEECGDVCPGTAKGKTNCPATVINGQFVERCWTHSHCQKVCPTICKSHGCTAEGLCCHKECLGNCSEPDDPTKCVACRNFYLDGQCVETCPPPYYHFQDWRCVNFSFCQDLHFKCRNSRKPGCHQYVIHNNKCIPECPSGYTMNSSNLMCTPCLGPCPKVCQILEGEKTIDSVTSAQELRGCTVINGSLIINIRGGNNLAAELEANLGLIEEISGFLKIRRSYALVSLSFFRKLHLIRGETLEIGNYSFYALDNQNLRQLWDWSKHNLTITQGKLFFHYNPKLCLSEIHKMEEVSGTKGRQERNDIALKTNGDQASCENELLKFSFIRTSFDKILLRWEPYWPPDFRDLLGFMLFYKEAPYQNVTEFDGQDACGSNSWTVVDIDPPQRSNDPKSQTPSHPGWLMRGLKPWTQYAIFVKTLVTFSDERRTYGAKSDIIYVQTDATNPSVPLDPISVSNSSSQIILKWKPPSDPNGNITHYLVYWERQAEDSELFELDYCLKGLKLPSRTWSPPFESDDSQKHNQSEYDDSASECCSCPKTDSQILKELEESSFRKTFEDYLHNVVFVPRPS

SMILES | % (produced nitrites; control 0, LPS 100) [1, 10] | Produced nitrites [1, 10] | % (produced nitrites; control 0, LPS 100) [1, 11] | Produced nitrites [1, 11] | Average content of TBARS (%) ([2]; Dosage 10 μg/ml) | Average content of TBARS (%) ([2]; Dosage 100 μg/ml) | Glycogenesis (absorbance) ([3]; Dosage 10 μg/ml) | Rate of Increase(%) of glycogenesis ([3]; Dosage 10 μg/ml) | Glycogenesis (absorbance) ([3]; Dosage 100 μg/ml) | Rate of Increase(%) of glycogenesis ([3]; Dosage 100 μg/ml) | tyrosin phosphorylation of insulin receptors [4] | decrease of TBARS content compared with control group ([2]; 10 μg/ml) | decrease of TBARS content compared with control group ([2]; 100 μg/ml) | LD50 [5] | number of dead animals [6] | increase of glycogenesis compared with control group ([3]; 10 μg/ml, 24 hours, HepG2 (FIG. 3)) | change of body weight [7] | blood glucose lowering effect in oral glucose tolerance test [8] | blood glucose level [9]
S=C(Nc1ccccc1)NN1CCCCC1 [phenyl (C12H17N3S)] | 75.26% | 5.5515 µM | 74.20% | 5.5205 µM | 61.4% | 65.1% | 0.196 | 90% | 0.161 | 56% | – | – | – | – | – | – | – | – | –
COc1cccc(NC(=S)NN2CCOCC2)c1 [3-methoxyphenyl] | 81.19% | 5.7255 µM | 56.99% | 5.0155 µM | 81.9% | 63.9% | 0.191 | 85% | 0.202 | 96% | – | – | – | – | – | – | – | – | –
Cc1cccc(NC(=S)NN2CCOCC2)c1 [3-methylphenyl] | 81.19% | 5.7255 µM | 61.83% | 5.1575 µM | 67.5% | 66.3% | 0.189 | 83% | 0.325 | 216% | – | – | – | – | – | – | – | – | –
S=C(Nc1ccccc1)NN1CCOCC1 [phenyl (C11H15N3OS)] | 62.37% | 5.1735 µM | 48.93% | 4.779 µM | – | – | 0.301 | 195% | 0.225 | 118% | – | – | – | – | – | – | – | – | –
S=C(Nc1ccc(Cl)cc1)NN1CCOCC1 [N(4′-chlorophenyl) N′ morpholino thiocarbamide] | 4.81% | 3.4845 µM | −9.85% | 3.0545 µM | – | – | – | – | – | – | noticeable tyrosin phosphorylation of insulin receptors | 10.2% | 32% | > 5000 mg/kg | no mouse was dead | 49.89% | no difference in body weight | remarkable blood glucose lowering effect | 300 to 400 mg/dL
Cc1ccccc1NC(=S)NN1CCOCC1 [2-methylphenyl] | 81.17% | 5.3155 µM | 66.14% | 5.284 µM | 57.9% | 60.5% | 0216 | 110% | 0.238 | 131% | – | – | – | – | – | – | – | – | –
